Measured values as given in patent US10011649B2 (priority 2013, dated 2018).
pIC50: −log10 of the molar value. Numbered stars: 1 amine (or outer) side, 2 acyl side, 3 side chain; on linkers, the order of the positions; unused ones are H or OH. Bridge positions count the residues as written; N and C are the ends. Square brackets hold non-standard residues; d marks the D form. Ends that are not written are not given here. I, II: the chains in the order shown. * marks the point of attachment. ξ: configuration not given here. Succinimide(1-C2H4CO,3-yl) = O=C1CC([*:1])C(=O)N1CCC(=O)[*:2]; X4 = O=C(O)CC[C@H](NC(=O)CCN1C(=O)CC([*:1])C1=O)C(=O)[*:2]; X2 = O=C(O)CCC(NC(=O)CCN1C(=O)CC([*:2])C1=O)C(=O)[*:1]; Biotin = O=C1N[C@H]2[C@H](CS[C@H]2CCCCC(=O)*)N1; X3 = O=C1CC([*:2])C(=O)N1CCC(=O)[*:1]; X1 = O=C1NC2CSC(CCCCC(=O)*)C2N1; scaffold‑1 = not defined here; Pra = C#CC[C@H](N)C(=O)O; ξE = NC(CCC(=O)O)C(=O)O; AEEA = NCCOCCOCC(=O)O; ξK = NCCCCC(N)C(=O)O; ξS = NC(CO)C(=O)O

Legend:
[1] = system: UV inactivated Influenza A PR8/1934; type: binding
[2] = system: UV inactivated Influenza A PR/8/1934 H1N1; type: binding
[3] = system: hemagglutination of A/PR/8/34
[4] = target: T1, NP in A/PR/8/34 H1N1 viral lysate (Influenza A virus, UniProt P03466); type: binding
T1 construct: from tissue; host or cells: A/PR/8/34 H1N1 viral lysate

[5] = system: NP in A/Sydney/5/1997 H3N2 viral lysate; type: binding
[6] = system: A/PR/8/34 H1N1 infected Madin-Darby Canine Kidney (MDCK) cells; assay: Cytopathic effect assay (XTT), virus induced cell death; type: cell-based; conditions: read-out: IC50, inhibition of virus induced cell death
Description: The illustrated examples support the finding that synbodies inhibit the cytopathic effect of influenza on MDCK cells. Influenza binding peptides were conjugated to a bivalent scaffold (Sc1, as best shown in FIG. 2A) and screened for viral inhibition in an in vitro inhibition assay with A/PR/8/34 H1N1 infected Madin-Darby Canine Kidney (MDCK) cells.

T1 sequence (P03466 whole entry): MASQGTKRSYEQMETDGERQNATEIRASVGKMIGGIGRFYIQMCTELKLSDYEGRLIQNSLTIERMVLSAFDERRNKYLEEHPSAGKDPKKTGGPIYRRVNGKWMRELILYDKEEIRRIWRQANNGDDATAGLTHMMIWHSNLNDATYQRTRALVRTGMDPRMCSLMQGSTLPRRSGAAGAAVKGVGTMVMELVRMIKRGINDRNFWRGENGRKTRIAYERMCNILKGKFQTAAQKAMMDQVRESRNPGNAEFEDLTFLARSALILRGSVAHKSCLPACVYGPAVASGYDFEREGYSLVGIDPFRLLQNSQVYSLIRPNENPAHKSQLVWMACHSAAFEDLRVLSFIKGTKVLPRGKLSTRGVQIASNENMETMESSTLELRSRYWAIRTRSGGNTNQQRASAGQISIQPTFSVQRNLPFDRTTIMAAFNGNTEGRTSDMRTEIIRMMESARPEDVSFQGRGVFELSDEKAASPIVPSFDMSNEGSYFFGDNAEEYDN

Substance	Fold Change versus WT Synbody [1]	also measured
opt9-opt9: homo-bivalent synbody SEQ ID NO: 10-10 on scaffold-1 (chain 1 CSGRMYPYRPFQGNHIYRKK; chain 2 CSGRMYPYRPFQGNHIYRKK; linker (positions not given here) via scaffold‑1; reading uncertain; also: homo-bivalent on scaffold-1, attachment not given here)	1 fold	–
opt4-opt4: homo-bivalent synbody SEQ ID NO: 5-5 on scaffold-1 (chain 1 CSGRMYPYNPFQGNHIYNKK; chain 2 CSGRMYPYNPFQGNHIYNKK; linker (positions not given here) via scaffold‑1; reading uncertain; also: homo-bivalent on scaffold-1, attachment not given here)	10 fold	–
opt14-opt14: homo-bivalent synbody SEQ ID NO: 15-15 on scaffold-1 (chain 1 CSGRMYEYNPFQGKHIYRKK; chain 2 CSGRMYEYNPFQGKHIYRKK; linker (positions not given here) via scaffold‑1; reading uncertain; also: homo-bivalent on scaffold-1, attachment not given here)	107 fold	–
opt11-opt11: homo-bivalent synbody SEQ ID NO: 12-12 on scaffold-1 (chain 1 CSGTMYPYRPFQGNHIYRKK; chain 2 CSGTMYPYRPFQGNHIYRKK; linker (positions not given here) via scaffold‑1; reading uncertain; also: homo-bivalent on scaffold-1, attachment not given here)	47 fold	–
CSGrMYpYrPFQGNHIYrKK (CSG[dR]MYPY[dR]PFQGNHIY[dR]KK; not fully specified (residue 7); printed as CSGrMYpYrPFQGNHIYrKK) [opt10]	–	fold improvement of optimized peptide over identified lead peptide [2]: approximately 1000 fold
opt2-opt2: homo-bivalent synbody SEQ ID NO: 3-3 on scaffold-1 (chain 1 CSGRMYEYNPFQGNHIYNKK; chain 2 CSGRMYEYNPFQGNHIYNKK; linker (positions not given here) via scaffold‑1; reading uncertain; also: homo-bivalent on scaffold-1, attachment not given here)	3 fold	–
opt7-opt7: homo-bivalent synbody SEQ ID NO: 8-8 on scaffold-1 (chain 1 CSGRMYPYNPFQGNHIYRKK; chain 2 CSGRMYPYNPFQGNHIYRKK; linker (positions not given here) via scaffold‑1; reading uncertain; also: homo-bivalent on scaffold-1, attachment not given here)	45 fold	–
opt12-opt12: homo-bivalent synbody SEQ ID NO: 13-13 on scaffold-1 (chain 1 CSGRMYPYRPFQRKHIYRKK; chain 2 CSGRMYPYRPFQRKHIYRKK; linker (positions not given here) via scaffold‑1; reading uncertain; also: homo-bivalent on scaffold-1, attachment not given here)	n.b.	–
I: [ξE][ξK]G[ξS]G[ξS]G[AEEA][ξK](X1)IDKMPFETHRLGPGRFDGSG-NH2 / II: CSGDMYEYNPFQGNHIYNKK-NH2 / III: CSGDMYEYNPFQGNHIYNKK-NH2 (linker I:2-II:1 via X2; linker I:N-III:1 via X3) [P5-P5-Sc2]	–	inhibition of hemagglutination [3]: did not inhibit hemagglutination; pull-down of NP from lysate [4]: pulled-down NP from both lysates; pull-down of NP from lysate [5]: pulled-down NP from both lysates; pIC50 (A/CA/7/2009 H1N1): 5.60; pIC50 (A/Sydney/5/1997 H3N2): 5.60
opt6-opt6: homo-bivalent synbody SEQ ID NO: 7-7 on scaffold-1 (chain 1 CSGDMYEYNPFQGNHIYRKK; chain 2 CSGDMYEYNPFQGNHIYRKK; linker (positions not given here) via scaffold‑1; reading uncertain; also: homo-bivalent on scaffold-1, attachment not given here)	4 fold	–
opt5-opt5: homo-bivalent synbody SEQ ID NO: 6-6 on scaffold-1 (chain 1 CSGRMYRYNPFQGNHIYNKK; chain 2 CSGRMYRYNPFQGNHIYNKK; linker (positions not given here) via scaffold‑1; reading uncertain; also: homo-bivalent on scaffold-1, attachment not given here)	n.b.	–
opt8-opt8: homo-bivalent synbody SEQ ID NO: 9-9 on scaffold-1 (chain 1 CSGTMYEYNPFQGNHIYNKK; chain 2 CSGTMYEYNPFQGNHIYNKK; linker (positions not given here) via scaffold‑1; reading uncertain; also: homo-bivalent on scaffold-1, attachment not given here)	1 fold	–
I: CSGDMYEYNPFQGNHIYNKK-NH2 / II: CSGDMYEYNPFQGNHIYNKK-NH2 / III: EKGSKSGK(Biotin)[Pra]-NH2 (linker I:1-III:2 via X4; linker II:1-III:N via Succinimide(1-C2H4CO,3-yl); C-terminus assumed) [P5-P5-Sc1]	1 fold	pIC50 [6]: ~5.60
opt1-opt1: homo-bivalent synbody SEQ ID NO: 2-2 on scaffold-1 (chain 1 CSGDMYRYNPFQGNHIYNKK; chain 2 CSGDMYRYNPFQGNHIYNKK; linker (positions not given here) via scaffold‑1; reading uncertain; also: homo-bivalent on scaffold-1, attachment not given here)	6 fold	–
opt13-opt13: homo-bivalent synbody SEQ ID NO: 14-14 on scaffold-1 (chain 1 CCSGDRYEYNPFQGKHIYNK; chain 2 CCSGDRYEYNPFQGKHIYNK; linker (positions not given here) via scaffold‑1; reading uncertain; also: homo-bivalent on scaffold-1, attachment not given here)	n.b.	–
opt3-opt3: homo-bivalent synbody SEQ ID NO: 4-4 on scaffold-1 (chain 1 CSGDMYPYNPFQGNHIYNKK; chain 2 CSGDMYPYNPFQGNHIYNKK; linker (positions not given here) via scaffold‑1; reading uncertain; also: homo-bivalent on scaffold-1, attachment not given here)	n.b.	–
